Patent publication US8354387B2, “Methods and compositions for delivering siRNA into mammalian cells” (Centre National de la Recherche Scientifique, priority 2004, dated 2013)

What was measured:
Hs68 human fibroblasts = assay: Cellular uptake and localization of fluorescently labelled siRNA by fluorescence microscopy on living cells; format: cell-based; details: for final subcellular localization of fluorescently-labeled siRNA: GAPDH siRNA, molar ratio 10/1, Hs68, living cells; for efficiency of siRNA delivery into cultured cells (% cells): fluorescently-labelled GAPDH siRNA, carrier/siRNA molar ratio 10/1, Hs68, 30 min, with serum
Protocol: Hs68 (ATCC no CRL-1635), Cos-7 (ATCC no CRL-1651) and HeLa (ATCC no CCL-2) cell lines were cultured in Dulbecco's Modified Eagle's Medium supplemented with 2 mM glutamine, 1% antibiotics (streptomycin 10 000 μg/ml, penicillin, 10,000 IU/ml) and 10% (w/v) fetal calf serum (FCS) at 37° C. in a humidified atmosphere containing 5% CO2 as described previously (18). For MPG or MPG^ΔNLS-mediated gene delivery, peptide carrier/siRNA complexes were formed in DMEM or PBS, at a charge ratio 10:1 and incubated for 30 min at 37° C. Cells grown to 60% confluence were then overlaid with these preformed complexes. After 30 min incubation at 37° C., 1 ml of fresh DMEM supplemented with 10% fetal calf serum was added to the cells, without removing the overlay of carrier/siRNA, and cells were returned to the incubator.
Transfections were performed for 1 hour, after which cells were extensively washed and either analyzed by fluorescence microscopy in order to determine the cellular localization of the fluorescently labeled oligonucleotide or returned to the incubator at 37° C. in the presence of fresh medium supplemented with serum.
siRNA targeting the 3′UTR of GAPDH were from the Silencer™ GAPDH siRNA kit (Ambion). Fluorescent labeling of siRNA was performed using either the Fam or the Cy3 Silencer™ labeling kit (Ambion) and modified as described in the manufacturer's protocol. pRL-Luc reporter gene was from Promega and siRNA targeting luciferase sense ^5′[…]^3′ (SEQ ID NO:4) and antisense ^3′ […]^5′ (SEQ ID NO:5) and mismatch sense ^5′[…]^3′ (SEQ ID NO:6) and antisense ^3′[…]^5″ (SEQ ID NO:7) siRNA were obtained from Genset Oligos.
RNA interference (siRNA) constitutes a powerful tool to silence gene expression post-transcriptionally (28, 29). In order to validate the potential of MPG-like carriers, the ability of MPG and MPG^ΔNLS to promote cellular uptake of siRNA was investigated. Fluorescently-labelled siRNA designed to silence GAPDH were complexed with both MPG and MPG^ΔNLS at a molar ratio of 10/1, incubated onto cultured Hs68 human fibroblasts in the presence of serum for 30 min, following which internalization and subcellular localization of siRNA were examined by fluorescence microscopy. Two different fluorescent probes (fluorescein and Cy-3), were used in order to avoid any artefacts which might have been associated with the nature of the probe. As fixation procedures have sometimes been reported to cause artifactual uptake (30-32), experiments were performed on living cells.

human fibroblasts (Hs68) = assay: pRL-SV40 plasmid transfection of synchronized or arrested cells (luciferase activity); format: cell-based; details: for luciferase activity in serum-starved, arrested cells in comparison with dividing cells: 24 hrs after transfection; for transfection efficiency after 24 hrs, relative to expression after 48 hrs: synchronized Hs68, pRL-SV40, 24 hrs
Protocol: FIG. 2: The NLS of MPG is essential for nuclear translocation: A/ Purified GST-importin α and β were coupled onto GST Sepharose resin and incubated in batch with MPG/DNA or MPG^ΔNLS/DNA complexes for 1 hr, extensively washed and incubated with […] glutathione to elute the complexes. DNA was then extracted and analyzed by agarose gel electrophoresis (0.8%). […] B/ Delivery of pRL-SV40 plasmid: MPG/DNA (black boxes) or MPG^ΔNLS/DNA (grey boxes) complexes formed at a charge ratio of 5/1 with 100 ng pRL-SV40 plasmid encoding the reporter gene luciferase were overlaid onto synchronized or arrested (-FCS) human fibroblasts (Hs68). Luciferase activity was monitored 12 hrs and 24 hrs after release from synchrony, or after 24 hrs for arrested cells and 48 hrs for asynchronous cells. Control transfections were performed with Lipofectamine™ (white boxes) or naked plasmid (dashed boxes).
Hs68, Cos-7 and HeLa cell lines were cultured in Dulbecco's Modified Eagle's Medium supplemented with 2 mM glutamine, 1% antibiotics (streptomycin 10 000 μg/ml, penicillin, 10,000 IU/ml) and 10% (w/v) fetal calf serum (FCS) at 37° C. in a humidified atmosphere containing 5% CO2 as described previously (18). For MPG or MPG^ΔNLS-mediated gene delivery, peptide carrier/DNA complexes were formed in DMEM or PBS (500 μl of DMEM containing 100 ng of DNA complexed with MPG at a charge ratio 5:1) and incubated for 30 min at 37° C. Cells grown to 60% confluence were then overlaid with these preformed complexes. After 30 min incubation at 37° C., 1 ml of fresh DMEM supplemented with 10% fetal calf serum was added to the cells, without removing the overlay of carrier/DNA, and cells were returned to the incubator.
For cell cycle-dependent studies, Hs68 fibroblasts were synchronized by serum deprivation for 40 hrs, then restimulated to enter the cycle and grow into early G1 for 4 hrs by addition of fresh DMEM supplemented with 20% FCS, and incubated in the presence of MPG/DNA complexes as described above. Luciferase activity was monitored as described previously (19) and control transfection experiments were performed using Lipofectamine™. When transfected at 4° C., cells were incubated for 1 hour at 4° C. prior to transfection, then incubated with MPG/DNA complexes for another 2 hours at 4° C., extensively washed and finally returned to incubation at 37° C. in fresh medium supplemented with serum. When transfections were performed in the presence of bafilomycin A ([…]), cytochalasin B (50 μg/ml) or chloroquine (100 μM), cells were preincubated with these inhibitors of endocytosis for 1 hour prior to transfection.
In order to study the impact of the NLS of MPG on nuclear translocation of plasmids, transfection experiments were performed on synchronized or growth-arrested cells with either MPG or its NLS mutant. Cells were synchronized in G0 by serum starvation then released back into the cell cycle by addition of serum. 4 hours after release, cells were transfected with MPG/DNA or MPG^ΔNLS/DNA complexes and transgene expression was monitored 12 hours later, when most of the cells were in late G1, and […] later, in late G2 prior to mitosis. Data were normalized with luciferase activity obtained 48 hours after transfection, and compared with asynchronous cells. […] After 24 hrs, transfection efficiency reached 70%. In contrast, when transfection was performed with MPG^ΔNLS (SEQ ID NO:3), luciferase activity was negligible after 12 hrs (7%), and only reached 26% after 24 hrs. […]

Row | Sequence | final subcellular localization of fluorescently-labeled siRNA (Hs68 human fibroblasts) | efficiency of siRNA delivery into cultured cells (% cells) (Hs68 human fibroblasts) | luciferase activity in serum-starved, arrested cells in comparison with dividing cells (human fibroblasts (Hs68)) | luciferase expression after 12 hrs, relative to expression after 48 hrs (human fibroblasts (Hs68); synchronized Hs68, pRL-SV40, 12 hrs) [%] | transfection efficiency after 24 hrs, relative to expression after 48 hrs (human fibroblasts (Hs68)) [%]
1 | GALFLGFLGAAGSTMGAWSQPKSKRKV (carrier peptide) [MPG^ΔNLS, MPG variant with single mutation of the second lysine residue in the NLS motif to serine] | remained mostly in the cytoplasm | about 90 % cells | no transfection was observed | 7 | 26
2 | GALFLGFLGAAGSTMGAWSQPKKKRKV (carrier peptide) [MPG, bipartite amphipathic peptide derived from fusion peptide domain of HIV-1 gp41 and NLS of SV40 large T antigen] | localized rapidly to the nucleus | about 90 % cells | 50% | – | 70
